Legend:
Sorbitol dehydrogenase = biological target: T1, Sorbitol dehydrogenase (Homo sapiens, UniProt Q00796); assay: In vitro inhibitory activity against human SDH
T1 sequence (Q00796 whole entry): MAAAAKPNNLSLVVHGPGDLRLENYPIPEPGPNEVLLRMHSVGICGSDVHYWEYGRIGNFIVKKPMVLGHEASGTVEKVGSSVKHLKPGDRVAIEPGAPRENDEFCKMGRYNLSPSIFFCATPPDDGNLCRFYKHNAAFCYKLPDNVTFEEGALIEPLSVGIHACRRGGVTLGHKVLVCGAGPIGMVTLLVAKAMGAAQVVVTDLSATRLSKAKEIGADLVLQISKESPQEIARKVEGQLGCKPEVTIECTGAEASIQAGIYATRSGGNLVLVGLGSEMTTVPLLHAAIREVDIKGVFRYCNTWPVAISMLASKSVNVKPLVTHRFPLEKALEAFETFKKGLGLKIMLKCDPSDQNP

Rattus norvegicus = assay: In vivo inhibition of diabetic rat sciatic nerve fructose accumulation; assay type: functional

**Q.** Which results are given for CO[C@@H](C)c1nccc(N2CCN(S(=O)(=O)N(C)C)CC2)n1?
**A.** IC50 (Sorbitol dehydrogenase): 486 nM; ED50 (Rattus norvegicus): 9 mg/kg

**Q.** With C[C@@H](O)c1nccc(N2CCN(S(=O)(=O)N(C)C)CC2)n1 as the compound, how does the IC50 (Sorbitol dehydrogenase) read?
**A.** The IC50 was 27 nM.

**Q.** And the ED50 (Rattus norvegicus)?
**A.** Its ED50 is 1.6 mg/kg.

**Q.** Which IC50 (Sorbitol dehydrogenase) does the source give for CN(C)S(=O)(=O)N1CCN(c2ccnc(CO)n2)CC1 here?
**A.** The IC50 was 246 nM.

**Q.** And the ED50 (Rattus norvegicus)?
**A.** The ED50 was 14.1 mg/kg.

**Q.** Which results are given for CC(O)c1nccc(N2CCN(S(=O)(=O)N(C)C)CC2)n1 (stereo not drawn)?
**A.** IC50 (Sorbitol dehydrogenase): 173 nM; ED50 (Rattus norvegicus): 2.4 mg/kg

— ChEMBL document CHEMBL1134443, “Sorbitol dehydrogenase inhibitors (SDIs): a new potent, enantiomeric SDI, 4-[2-1R-hydroxy-ethyl)-pyrimidin-4-yl]piperazine-1-sulfonic acid dimethylamide” (J Med Chem, 2001)
